We go through two compounds from ChEMBL document CHEMBL4316625, “Double prodrugs of a fosmidomycin surrogate as antimalarial and antitubercular agents” (Bioorg Med Chem Lett, 2019).

The experiment relates to Mycobacterium tuberculosis. Put plainly: Antitubercular activity against Mycobacterium tuberculosis H37Ra ATCC 25177 transformed with pSMT1 luciferase reporter plasmid reduction in bacterial multiplication incubated for 7 days by luminometric assay. The format is functional, organism-based. Conditions: H37Ra ATCC 25177, 168 h. (A reporter such as luciferase makes a cellular process visible.)

Take `CN(OC(=O)Nc1ccccc1)C(=O)CCCP(=O)(OCOC(=O)C(C)(C)C)OCOC(=O)C(C)(C)C`: the MIC was over 64 µM.

`CC(=O)ON(C)C(=O)CCCP(=O)(OCOC(=O)C(C)(C)C)OCOC(=O)C(C)(C)C` registered an MIC of over 64 µM.

Usually MIC stands for the least concentration at which growth counts as inhibited.
